How the values were obtained:
[1] = tested on: systemic blood pressure of cats; experiment: Antihypertensive effect in cats; assay type: in vivo; conditions: 3 hours, Octadine 20.0 mg/kg (0.08 mmol/kg), Greenflo 10.0 mg/kg (0.05 mmol/kg)
SBP of white rats = experiment: Antihypertensive effect in normotensive white rats; assay type: in vivo; conditions: for Antihypertensive effect, %: intravenous, after 3 hours, Octadine 6.2 mg/kg, Greenflo 5.0 mg/kg (as thick chlorophyllipt extract), 0.025 mmol/kg
Method: The antihypertensive effect of the drugs was evaluated after 3 hours of observation. Digital data table.
For an objective comparison of the activity of the studied substances, ED30 was experimentally established (a unit of action that causes a decrease in SBP by 30%) for each drug. For this purpose, the value of the hypotensive effect of various doses of substances in three groups of five white rats was determined in experiment, the arithmetic mean of the obtained series and their standard errors were calculated. Then, digital data was plotted and ED30 was calculated.
An indicator of the true hypotensive effect of a new chemical is its ability to lower pathologically elevated SBP. To solve this problem, 5 adult white rats with spontaneous hypertension (weight 260-280 g) were used, in which, before the experiment, the level of SBP averaged 180±1.7 mm Hg. For comparison, an experiment was conducted on 5 white rats with normal SBP. 17.

[2] = tested on: systemic blood pressure of rabbits; experiment: Antihypertensive effect in rabbits; assay type: in vivo; conditions: intravenous, 3 hours, Octadine 15.0 mg/kg (0.06 mmol/kg), Greenflo 10.0 mg/kg (0.05 mmol/kg)
[3] = Biological activity of fully substituted quercetins (test not specified)
[4] = tested on: carrageenan edema of the foot; conditions: from references [14, 16]; cited from earlier work

## N=C(N)NCCN1CCCCCCC1 [Octadine]
[1]
  Antihypertensive effect, %: 35.0 ± 9.9%
SBP of white rats; dose 5.0 mg/kg
  The effect, % (hypotensive): 18.0 ± 2.7%
SBP of white rats; dose 10.0 mg/kg
  The effect, % (hypotensive): 26.0 ± 1.5%
SBP of white rats; dose 20.0 mg/kg
  The effect, % (hypotensive): 33.0 ± 4.9%
SBP of white rats
  Antihypertensive effect, %: 19.7 ± 2.2%
SBP of white rats; listed as octadine
  Antihypertensive effect, %: 19.7±2.2%
[2]
  Antihypertensive effect, %: 32.0 ± 6.1%

## O=C(O)CCC(=O)Oc1cc(OC(=O)CCC(=O)O)c2c(=O)c(OC(=O)CCC(=O)O)c(-c3ccc(OC(=O)CCC(=O)O)c(OC(=O)CCC(=O)O)c3)oc2c1 [Fully succinylated quercetin, pentasuccinyl quercetin]
[3]
  biological activity: did not exhibit biological activity

## O=C(O)Cc1ccccc1Nc1c(Cl)cccc1Cl [DN, sodium diclofenac]
[4]
  ED 50, mg/kg: 8.0 [14, 16] mg/kg
